Reference: patent publication US6521283B1, “Non-thrombogenic surfaces” (Biocompatibles Limited, priority 1990, dated 2003)
“And” between values parts separate entries of the source, which are not always exact repeats. Equal entries are not always repeated. Marks after values point to notes of the source that are not given here.

Key:
[1] = system: recalcified blood; test: in-use simulation: recalcified blood incubated in catheter segments, clot formation; set-up: species or system human; conditions: 15 cm catheter segment, frosted region, coated according to Example 2, 37° C., 150 minutes
Method: Three 15 cm segments of catheter (frosted region) coated according to Example 2 were prepared with the ends sealed using Eppendorf tubes. 40 ml of blood was collected from an adult volunteer into tri-sodium citrate (32 g/l) using the double syringe technique (the first 5 ml were discarded). 2 ml of 0.025 M calcium chloride in 0.15 M sodium chloride was added to 10 ml of citrated blood. 4 ml of recalcified blood was then added to each of the three catheter segments. The tubes were placed in a 37° C. incubator for 150 minutes. The samples were turned every 30 minutes. After this incubation the blood was drained from each of the catheters. They were then rinsed using PBS to remove any loosely bound material.

[2] = system: platelets; test: quantitative platelet adhesion test (ATP luminometry) in fresh citrated whole human blood; assay type: cell-based
Method: A quantitative platelet adhesion test was carried out by immersing samples in fresh citrated whole human blood at room temperature for 30 minutes. Tubing samples were prepared in 3 cm lengths sealed at both ends (the blood being introduced into the sample by hypodermic needle), and constantly mixed using a spiral mixer (tests were carried out in triplicate). Blood used in this assay was obtained using the double syringe method.
After incubation the samples were washed in isotonic phosphate buffered saline (PBS) and extracted into 1% trichloro acetate (TCA) (w/v) in 2 mM ethylene diamine tetraacetic acid (EDTA) to liberate ATP from any platelets adhering to the walls of the tubing.
The amount of ATP present in the extractant was estimated using the LKB Pharmacia ATP assay kit and a luminometer.
The number of platelets adhering to the samples was estimated from a standard curve using ATP levels associated with a known number of platelets.

[3] = system: blood cells / platelet cells; test: haemocompatibility of suture materials by scanning electron microscopy after incubation in whole blood; assay type: cell-based, human; conditions: braided polyester yarn suture material coated at 10 mg/ml (Example 3)
Method: Samples of the braided material treated according to Example 3 were incubated in fresh, citrated whole blood as described in Example 10 above. After removal from the blood these materials were washed using PBS and prepared for scanning electron microscopy by fixing in an aliquot of the following solution:
83 ml 0.15 M PBS (pH 7.4) 15 ml saturated picric acid
The samples were washed in PBS and dehydrated using 70% ethanol, followed by absolute ethanol. Finally samples were sputter coated with gold (at 30 mA for 3 minutes) and observed under the electron microscope.

[4] = wettability: static contact angles with distilled water drops; assay type: physicochemical; conditions: for Contact angles (°) (average) / Contact angles (°), single readings: distilled water drops after 5 minutes
Method: The wettability of materials coated with DPPC according to the preceding examples was assessed by measurement of static contact angles using distilled water drops after 5 minutes in contact with the surface.

[5] = PE (polyethylene) treated at 10 mg/ml
[6] = PVC thoracic drain catheter, clear region, coated at 10 mg/ml (Example 2)
[7] = PVC thoracic drain catheter, frosted region, coated at 10 mg/ml (Example 2)
[8] = polystyrene petri dish spin-coated at 10 mg/ml (Example 4)
[9] = PVC thoracic drain catheter coated as Ex. 2 at 10 mg/ml
[10] = polyethylene coated as Ex. 5 at 10 mg/ml
[11] = soft PVC tubing coated as Ex. 1
[12] = FEP IV catheters treated at 10 mg/ml in ethanol (Example 8)
[13] = hard PVC tubing coated with 5 mg/ml solution (Example 1)
[14] = hard PVC tubing coated with 10 mg/ml solution (Example 1)
[15] = polypropylene hollow fibre membrane treated at 2 mg/ml (Example 7)
[16] = polypropylene hollow fibre membrane treated at 10 mg/ml (Example 7)
[17] = polypropylene hollow fibre membrane treated at 10 mg/ml (Example 7), includes outlier
[18] = soft PVC tubing coated with 5 mg/ml solution (Example 1)
[19] = soft PVC tubing coated with 10 mg/ml solution (Example 1)

In the case of CCCCCCCCCCCCCC(=O)OC[C@H](COP(=O)([O-])OCC[N+](C)(C)C)OC(=O)CCCCCCCCCCCCC [DMPC, dimyristoyl phosphatidyl choline], the “drainage of blood and clot remaining in catheter” value [1] is reported as “Whole blood drained easily. One small clot remained attached to the surface”, the “% Reduction (platelet adhesion vs uncoated PE)” value [2, 5] is reported as 94% and the “platelets adhered, DONOR 1” value [2, 5] is reported as 0.91 no. of platelets ×10^6 per 22 mm^2 area of material. For the same compound, the “platelets adhered, DONOR 2” value [2, 5] was 1.38 no. of platelets ×10^6 per 22 mm^2 area of material, the “platelets adhered, DONOR 3” value [2, 5] was 3.99 no. of platelets ×10^6 per 22 mm^2 area of material and the “platelets adhered, X̄ (mean of donors)” value [2, 5] was 2.09 no. of platelets ×10^6 per 22 mm^2 area of material. The “% Reduction (platelet adhesion vs uncoated)” value [2, 6] was 56.1%, the “platelets adhered, DONOR 1” value [2, 6] was 15.26 platelets adhered ×10^6 per 3 cm lengths of catheters and the “platelets adhered, DONOR 2” value [2, 6] was 8.09 platelets adhered ×10^6 per 3 cm lengths of catheters. The “platelets adhered, DONOR 3” value [2, 6] was 16.78 platelets adhered ×10^6 per 3 cm lengths of catheters, the “platelets adhered, X̄ (mean of donors)” value [2, 6] was 13.38 platelets adhered ×10^6 per 3 cm lengths of catheters and the “% Reduction (platelet adhesion vs uncoated)” value [2, 7] was 95%. The “platelets adhered, DONOR 1” value [2, 7] was 0.31 platelets adhered ×10^6 per 3 cm lengths of catheters, the “platelets adhered, DONOR 2” value [2, 7] was 0.11 platelets adhered ×10^6 per 3 cm lengths of catheters and the “platelets adhered, DONOR 3” value [2, 7] was 0.56 platelets adhered ×10^6 per 3 cm lengths of catheters. For the same compound, the “platelets adhered, X̄ (mean of donors)” value [2, 7] was 0.33 platelets adhered ×10^6 per 3 cm lengths of catheters, the “% Reduction (platelet adhesion vs uncoated)” value [2, 8] was 97% and the “platelets adhered, DONOR 1” value [2, 8] was 1.20 no. of platelets ×10^6 adhered per petri dish (50 mm diameter). The “platelets adhered, DONOR 2” value [2, 8] was 0.26 no. of platelets ×10^6 adhered per petri dish (50 mm diameter), the “platelets adhered, DONOR 3” value [2, 8] was 3.78 no. of platelets ×10^6 adhered per petri dish (50 mm diameter) and the “platelets adhered, X̄ (mean of donors)” value [2, 8] was 1.75 no. of platelets ×10^6 adhered per petri dish (50 mm diameter).
In the case of CCCCCCCCCCCCCCCC(=O)OC[C@H](COP(=O)([O-])OCC[N+](C)(C)C)OC(=O)CCCCCCCCCCCCCCC [DPPC, dipalmitoyl phosphatidyl choline], the “drainage of blood and clot remaining in catheter” value [1] is reported as “blood drained easily. One small clot remained attached to the surface”, the “activation of platelet cells (electron microscopy)” value [3] is reported as “platelet cells are not activated” and the “adhesion of blood cells (electron microscopy)” value [3] is reported as “adhere fewer blood cells than untreated materials”. The “thrombogenicity vs untreated braided yarns” value [3] was “appear less thrombogenic”, the “Contact angles (°) (average)” value [4, 9] was 24 ° and the “Contact angles (°), single readings” value [4, 9] was 26 ° and 19 °. For the same compound, the “Conclusion (wettability)” value [4, 10] was “Wettable surface”, the “Contact angles (°) (average)” value [4, 10] was 15 ° and the “Contact angles (°), single readings” value [4, 10] was 12 ° and 21 °. For the same compound, the “Conclusion (wettability)” value [4, 11] was “Wettable surface”, the “Contact angles (°) (average)” value [4, 11] was 8 ° and the “Contact angles (°), single readings” value [4, 11] was 9 ° and < 5 ° and 10 °. The “% Reduction (platelet adhesion vs untreated catheters)” value [2, 12] was 65%, the “platelets adhered, DONOR 1” value [2, 12] was 1.89 platelets ×10^6 per 5 cm length of catheter and the “platelets adhered, DONOR 2” value [2, 12] was 1.24 platelets ×10^6 per 5 cm length of catheter. For the same compound, the “platelets adhered, DONOR 3” value [2, 12] was 5.84 platelets ×10^6 per 5 cm length of catheter, the “platelets adhered, X̄ (mean of donors)” value [2, 12] was 2.99 platelets ×10^6 per 5 cm length of catheter and the “% Reduction (platelet adhesion vs uncoated PE)” value [2, 5] was 94%. For the same compound, the “platelets adhered, DONOR 1” value [2, 5] was 1.58 no. of platelets ×10^6 per 22 mm^2 area of material, the “platelets adhered, DONOR 2” value [2, 5] was 3.76 no. of platelets ×10^6 per 22 mm^2 area of material and the “platelets adhered, DONOR 3” value [2, 5] was 1.72 no. of platelets ×10^6 per 22 mm^2 area of material. The “platelets adhered, X̄ (mean of donors)” value [2, 5] was 2.35 no. of platelets ×10^6 per 22 mm^2 area of material, the “% Reduction (platelet adhesion vs uncoated)” value [2, 6] was 97% and the “platelets adhered, DONOR 1” value [2, 6] was 0.53 platelets adhered ×10^6 per 3 cm lengths of catheters. The “platelets adhered, DONOR 2” value [2, 6] was 1.38 platelets adhered ×10^6 per 3 cm lengths of catheters, the “platelets adhered, DONOR 3” value [2, 6] was 0.60 platelets adhered ×10^6 per 3 cm lengths of catheters and the “platelets adhered, X̄ (mean of donors)” value [2, 6] was 0.84 platelets adhered ×10^6 per 3 cm lengths of catheters. For the same compound, the “% Reduction (platelet adhesion vs uncoated)” value [2, 7] was 87%, the “platelets adhered, DONOR 1” value [2, 7] was 0.88 platelets adhered ×10^6 per 3 cm lengths of catheters and the “platelets adhered, DONOR 2” value [2, 7] was 1.05 platelets adhered ×10^6 per 3 cm lengths of catheters. The “platelets adhered, DONOR 3” value [2, 7] was 0.59 platelets adhered ×10^6 per 3 cm lengths of catheters, the “platelets adhered, X̄ (mean of donors)” value [2, 7] was 0.84 platelets adhered ×10^6 per 3 cm lengths of catheters and the “platelet adhesion to coated PVC / thrombogenicity of PVC tubing” value ([2]; PVC tubing coated according to Example 1) was “large reduction in the thrombogenicity”. The “% Reduction (platelet adhesion vs uncoated control)” value [2, 13] was 94%, the “platelets adhered, DONOR 2” value [2, 13] was 0.13 no. of platelets ×10^6 per 3 cm lengths of tubing and the “platelets adhered, DONOR 3” value [2, 13] was 0.19 no. of platelets ×10^6 per 3 cm lengths of tubing. For the same compound, the “platelets adhered, X̄ (mean of donors)” value [2, 13] was 0.35 no. of platelets ×10^6 per 3 cm lengths of tubing, the “platelets adhered, DONOR 1” value ([2]; hard PVC tubing coated with 5 mg/ml solution (Example 1), 30 min, room temperature) was 0.72 no. of platelets ×10^6 per 3 cm lengths of tubing and the “% Reduction (platelet adhesion vs uncoated control)” value [2, 14] was 97%. For the same compound, the “platelets adhered, DONOR 1” value [2, 14] was 0.51 no. of platelets ×10^6 per 3 cm lengths of tubing, the “platelets adhered, DONOR 2” value [2, 14] was 0.14 no. of platelets ×10^6 per 3 cm lengths of tubing and the “platelets adhered, DONOR 3” value [2, 14] was 0.10 no. of platelets ×10^6 per 3 cm lengths of tubing. For the same compound, the “platelets adhered, X̄ (mean of donors)” value [2, 14] was 0.25 no. of platelets ×10^6 per 3 cm lengths of tubing, the “% Reduction (platelet adhesion vs untreated)” value [2, 15] was 91% and the “platelets adhered, DONOR 1” value [2, 15] was 0.91 no. of platelets ×10^6 per 20 cm length of fibre. For the same compound, the “platelets adhered, DONOR 2” value [2, 15] was 0.89 no. of platelets ×10^6 per 20 cm length of fibre, the “platelets adhered, DONOR 3” value [2, 15] was 0.53 no. of platelets ×10^6 per 20 cm length of fibre and the “platelets adhered, X̄ (mean of donors)” value [2, 15] was 0.78 no. of platelets ×10^6 per 20 cm length of fibre. The “platelets adhered, DONOR 1” value [2, 16] was 0.41 no. of platelets ×10^6 per 20 cm length of fibre, the “platelets adhered, DONOR 3” value [2, 16] was 0.52 no. of platelets ×10^6 per 20 cm length of fibre and the “% Reduction (platelet adhesion vs untreated)” value [2, 17] was 56%. For the same compound, the “platelets adhered, X̄ (mean of donors)” value [2, 17] was 3.67 no. of platelets ×10^6 per 20 cm length of fibre, the “platelets adhered, DONOR 2” value ([2]; polypropylene hollow fibre membrane treated at 10 mg/ml (Example 7), result thought to be an outlier) was 10.08* no. of platelets ×10^6 per 20 cm length of fibre and the “% Reduction (platelet adhesion vs uncoated)” value [2, 8] was 92%. For the same compound, the “platelets adhered, DONOR 1” value [2, 8] was 5.54 no. of platelets ×10^6 adhered per petri dish (50 mm diameter), the “platelets adhered, DONOR 2” value [2, 8] was 3.55 no. of platelets ×10^6 adhered per petri dish (50 mm diameter) and the “platelets adhered, DONOR 3” value [2, 8] was 3.08 no. of platelets ×10^6 adhered per petri dish (50 mm diameter). The “platelets adhered, X̄ (mean of donors)” value [2, 8] was 4.06 no. of platelets ×10^6 adhered per petri dish (50 mm diameter), the “% Reduction (platelet adhesion vs uncoated control)” value [2, 18] was 96% and the “platelets adhered, DONOR 1” value [2, 18] was 0.76 no. of platelets ×10^6 per 3 cm lengths of tubing. For the same compound, the “platelets adhered, DONOR 2” value [2, 18] was 0.72 no. of platelets ×10^6 per 3 cm lengths of tubing, the “platelets adhered, DONOR 3” value [2, 18] was 0.30 no. of platelets ×10^6 per 3 cm lengths of tubing and the “platelets adhered, X̄ (mean of donors)” value [2, 18] was 0.59 no. of platelets ×10^6 per 3 cm lengths of tubing. For the same compound, the “% Reduction (platelet adhesion vs uncoated control)” value [2, 19] was 90%, the “platelets adhered, DONOR 1” value [2, 19] was 0.97 no. of platelets ×10^6 per 3 cm lengths of tubing and the “platelets adhered, DONOR 2” value [2, 19] was 1.89 no. of platelets ×10^6 per 3 cm lengths of tubing. For the same compound, the “platelets adhered, DONOR 3” value [2, 19] was 1.25 no. of platelets ×10^6 per 3 cm lengths of tubing and the “platelets adhered, X̄ (mean of donors)” value [2, 19] was 1.37 no. of platelets ×10^6 per 3 cm lengths of tubing.
